Data on 17 compounds can be found in patent publication US20240239767A1 (AstraZeneca AB, priority 2022, published 2024).

Test [1] concerns the target PCSK9 (Homo sapiens, UniProt Q8NBP7). The test can be described thus: Assay 2 - Biophysical human PCSK9 assay (SPR, Biacore). Further details: biotinylated human PCSK9 (31-692)-Avi-His6. In kind it is binding. The following applies: geometric mean; SPR single-cycle kinetics, 30° C.; read-out: Assay 2 (PCSK9 BIAcore DBA CR) GMean Kd. Here is the method: The SPR binding experiments were performed on a Biacore S200 optical biosensor unit at 30° C. A Series S Sensor Chip SA that is designed to bind biotinylated molecules for interaction analysis in Biacore systems was equilibrated at room temperature prior to use. The running buffer for protein tethering and subsequent ligand binding experiments was 10 mM HEPES pH 7.4, 150 mM NaCl, 0.05% (v/v) Tween 20 pH 7.4.
For the surface tethering of PCSK9, biotinylated human PCSK9 (31-692)-Avi-His6 at a concentration of 0.5 mg/mL was used. Prior to the surface tethering, the surface was exposed to a solution of 50 mM NaOH, 500 mM NaCl via 3 consecutive injections of this solution with a contact time of 60 s and a flowrate of 10 μL min- to remove non-conjugated streptavidin. The PCSK9 protein was diluted to a concentration of 20 μg/mL using running buffer and injected with a contact time of 180-300 s and a flowrate of 10 μL min^−1 over a single flow channel (typically flow channel 2 or flow channel 4) with the aim to achieve protein capture levels of >5000 response units (RU). Remaining biotin binding sites were blocked via 2 consecutive injections of a 10 μM D-biotin solution in running buffer with a contact time of 60 s and a flowrate of 10 μL min^−1 over all flow-channels.
The binding experiments were all performed at a flow rate of 30 μL min^−1 and by employing the method of single-cycle kinetics. This approach involves the sequential injection of a compound concentration series without regeneration steps. A contact time between 90-150 s was selected, which was followed by a 40 min dissociation phase to allow for a proper estimation of the dissociation rate constant. Test compounds were delivered in DMSO at a concentration of 10 mM and a digital dispenser HP D300 was used to set up the compound concentration series using 6 concentrations. The tested concentrations have been 30, 100, 300, 1000, 3000 and 10000 nM. Prior to injecting any compound, the surfaces were equilibrated by injecting running buffer over them in three separate pulses. The data collection rate was set to 10 Hz.
The raw sensorgrams of the compound injections were first subjected to reference subtraction (subtracting the signal from flow channel 1 and/or 3 from the signal from channels 2 and/or 4 respectively) and then blank subtraction (subtracting the signal from injecting DMSO controls from the reference subtracted data). The resulting double-referenced sensorgrams were then fitted using a 1:1 binding interaction model using the manufactures software package to extract kinetic- and affinity data.

In test [2] the target is T1, potassium ion channel hERG (human Ether-á-go-go-Related Gene) (Homo sapiens, UniProt Q12809).
T1 construct: expressed in transfected cells; host or cells: Chinese hamster ovary K1 (CHO)
T1 sequence (Q12809 whole entry): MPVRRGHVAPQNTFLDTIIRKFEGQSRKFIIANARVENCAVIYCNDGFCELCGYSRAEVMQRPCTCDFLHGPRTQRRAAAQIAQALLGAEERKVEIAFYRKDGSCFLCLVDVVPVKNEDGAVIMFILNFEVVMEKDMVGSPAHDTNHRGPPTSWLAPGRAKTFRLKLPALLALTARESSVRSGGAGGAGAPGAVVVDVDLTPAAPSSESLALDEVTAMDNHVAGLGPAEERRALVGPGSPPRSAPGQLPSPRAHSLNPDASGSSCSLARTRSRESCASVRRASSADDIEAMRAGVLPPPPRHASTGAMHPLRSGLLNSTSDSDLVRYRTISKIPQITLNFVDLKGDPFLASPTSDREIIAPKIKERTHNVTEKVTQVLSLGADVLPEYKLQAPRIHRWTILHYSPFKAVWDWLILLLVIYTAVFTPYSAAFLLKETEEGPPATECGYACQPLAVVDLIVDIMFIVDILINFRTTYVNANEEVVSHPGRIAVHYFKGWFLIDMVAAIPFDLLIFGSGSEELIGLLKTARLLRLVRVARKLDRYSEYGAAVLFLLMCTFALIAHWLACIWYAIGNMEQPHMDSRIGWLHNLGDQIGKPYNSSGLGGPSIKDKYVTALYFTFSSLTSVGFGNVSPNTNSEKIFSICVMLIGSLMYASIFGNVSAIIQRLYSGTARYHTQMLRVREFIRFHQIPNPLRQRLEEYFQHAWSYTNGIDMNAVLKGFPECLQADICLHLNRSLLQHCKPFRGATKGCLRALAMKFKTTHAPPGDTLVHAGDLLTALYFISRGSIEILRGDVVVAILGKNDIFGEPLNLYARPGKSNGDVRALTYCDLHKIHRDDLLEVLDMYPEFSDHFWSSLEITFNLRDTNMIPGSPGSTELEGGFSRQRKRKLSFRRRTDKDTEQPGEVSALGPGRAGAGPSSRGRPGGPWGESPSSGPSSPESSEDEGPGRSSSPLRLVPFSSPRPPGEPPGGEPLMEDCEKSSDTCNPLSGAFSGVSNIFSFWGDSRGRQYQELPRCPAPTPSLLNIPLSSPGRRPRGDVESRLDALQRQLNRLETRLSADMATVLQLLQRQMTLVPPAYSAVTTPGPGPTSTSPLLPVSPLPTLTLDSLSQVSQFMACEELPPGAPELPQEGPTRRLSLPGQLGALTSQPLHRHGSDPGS
The test is described as follows: Assay 5 - hERG assay (SyncroPatch 384PE patch clamp, CHO cells). In kind it is cell-based. Particulars: geometric mean, CHO cells over-expressing hERG, read-out: Assay 5 (hERG Hu CHO IF EPh CR-Syncro) GMean IC50. A digest of the protocol:
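Automated whole-cell patch clamp at room temperature on CHO-K1 cells over-expressing hERG, using K-fluoride/escin internal solution (pH 7.2) and NMDG-containing external solution (pH 7.4). Compounds were tested in a 6-point cumulative format, 0.33% final DMSO. Wells accepted only with seal >30 MegaOhm, Z′>0.4 and current >0.2 nA.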
(The hERG channel carries a current that helps repolarise heart muscle cells.)

The target in test [3] is T2, PCSK9 (Homo sapiens, UniProt Q8NBP7, G670E/V474I). The test can be described thus: biochemical.
Target sequence in this assay (Q8NBP7 with tags, fused parts or gaps V474I/G670E): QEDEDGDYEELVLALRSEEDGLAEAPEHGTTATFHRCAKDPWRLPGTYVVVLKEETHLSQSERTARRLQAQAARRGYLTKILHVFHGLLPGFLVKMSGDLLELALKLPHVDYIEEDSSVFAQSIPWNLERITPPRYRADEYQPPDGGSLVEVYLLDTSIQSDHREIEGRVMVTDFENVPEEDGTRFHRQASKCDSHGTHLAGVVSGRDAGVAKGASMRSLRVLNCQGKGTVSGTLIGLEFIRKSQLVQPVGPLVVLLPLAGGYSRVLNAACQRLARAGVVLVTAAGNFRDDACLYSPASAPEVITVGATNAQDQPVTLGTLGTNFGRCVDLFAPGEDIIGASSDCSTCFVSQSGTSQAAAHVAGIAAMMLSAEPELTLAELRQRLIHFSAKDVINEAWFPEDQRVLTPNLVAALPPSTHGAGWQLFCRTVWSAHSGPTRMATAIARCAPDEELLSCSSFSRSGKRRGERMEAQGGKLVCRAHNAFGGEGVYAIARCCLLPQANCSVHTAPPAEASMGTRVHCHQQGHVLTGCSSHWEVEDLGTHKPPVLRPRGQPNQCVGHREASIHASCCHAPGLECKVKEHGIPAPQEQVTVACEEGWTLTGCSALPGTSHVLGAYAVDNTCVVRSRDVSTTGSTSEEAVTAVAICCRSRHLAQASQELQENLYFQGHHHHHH
The target in test [4] is GSK3b (Glycogen synthase kinase-3 beta) (Homo sapiens, UniProt P49841). The test is described as follows: Assay 6 - GSK3b assay (ThermoFisher, FRET Z-Lyte). The class given is biochemical. Particulars: geometric mean; ATP Conc: 10.000 μM; read-out: Assay 6 (GSK3B FRET-Z-Lyte CR) GMean IC50 (μM) ATP Conc: 10.000. The method, boiled down: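 Z-Lyte FRET kinase assay: 0.22-0.92 ng GSK3β with 2 μM Ser/Thr 09 peptide in 50 mM HEPES pH 7.5, 10 mM MgCl2, 1 mM EGTA, 0.01% BRIJ-35, 60 min at room temperature, then 60 min development. Compounds in 1% DMSO, 10-point 3-fold dilutions from 10 μM; sigmoidal dose-response fit.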
Chain of GSK3b (Glycogen synthase kinase-3 beta) (P49841 whole entry): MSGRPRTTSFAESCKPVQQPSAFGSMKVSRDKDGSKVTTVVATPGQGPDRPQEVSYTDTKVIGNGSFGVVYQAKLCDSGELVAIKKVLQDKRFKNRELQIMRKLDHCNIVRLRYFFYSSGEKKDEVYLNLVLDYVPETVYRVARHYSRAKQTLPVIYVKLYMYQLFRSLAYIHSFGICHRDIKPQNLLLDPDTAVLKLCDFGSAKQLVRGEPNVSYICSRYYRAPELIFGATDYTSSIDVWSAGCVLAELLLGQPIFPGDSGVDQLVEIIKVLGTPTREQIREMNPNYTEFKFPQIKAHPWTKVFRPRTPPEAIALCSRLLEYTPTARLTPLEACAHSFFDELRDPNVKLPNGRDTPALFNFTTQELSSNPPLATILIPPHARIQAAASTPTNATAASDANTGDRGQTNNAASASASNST

Test [5] addresses T2, PCSK9. The test can be described thus: cell-based.
Target sequence in this assay (Q8NBP7 31-152): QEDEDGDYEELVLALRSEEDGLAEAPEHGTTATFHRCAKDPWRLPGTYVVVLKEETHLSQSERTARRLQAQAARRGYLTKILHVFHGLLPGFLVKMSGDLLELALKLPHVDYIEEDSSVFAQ
Target sequence in this assay (Q8NBP7 153-692 V474I/G670E): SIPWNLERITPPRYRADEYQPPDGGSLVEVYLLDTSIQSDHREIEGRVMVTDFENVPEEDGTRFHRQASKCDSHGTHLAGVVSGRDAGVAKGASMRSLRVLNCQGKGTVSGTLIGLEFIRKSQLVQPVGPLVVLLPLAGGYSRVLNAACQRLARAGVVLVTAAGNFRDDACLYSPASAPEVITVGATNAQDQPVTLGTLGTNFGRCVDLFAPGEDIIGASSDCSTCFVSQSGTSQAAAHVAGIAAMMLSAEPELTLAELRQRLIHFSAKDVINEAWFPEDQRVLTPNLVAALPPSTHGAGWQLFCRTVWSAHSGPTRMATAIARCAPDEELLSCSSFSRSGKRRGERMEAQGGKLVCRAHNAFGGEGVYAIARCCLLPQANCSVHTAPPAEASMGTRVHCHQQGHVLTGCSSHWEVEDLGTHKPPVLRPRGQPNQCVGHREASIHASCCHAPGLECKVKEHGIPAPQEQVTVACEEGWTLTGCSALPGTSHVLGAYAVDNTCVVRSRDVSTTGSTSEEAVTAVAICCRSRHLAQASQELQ
From the text: This assay measures for PCSK9 antagonist activity based on a test compound's capacity to restore LDL-C uptake in HepG2 cells. The assay is based on exogenous PCSK9 and LDL-C complexed with a pH-sensitive dye. Outside the cells, at neutral pH, the pHrodo Red-LDL is dimly fluorescent but upon LDLR mediated endocytosis it fluoresces brightly. PCSK9 traffics the LDLR to intracellular degradation and reduces uptake of LDL-C. Inhibition of PCSK9 reduces LDLR degradation and the increased LDL-C uptake is quantified by fluorescence microscopy.
Cell medium: MEM supplemented with 10% FBS, 1× NEAA and Sodium Pyruvate
Assay medium: OptiMem supplemented with penicillin/streptomycin
Cells: HepG2 (ATCC #HB-8065)
Cryopreserved HepG2 cells were thawed in assay medium and centrifuged for 5 min at 250 g. Supernatant was discarded and the cell pellet resuspended in cell medium and counted with a Nucleocounter. Cells were again centrifuged 5 min at 250 g and the pellet was resuspended to 500000 cells/mL in assay medium. • 2. 20 μL of above cell mix was dispensed into black pclear TC treated 384 well plates with Multidrop Combi and left at room temperature for 20 minutes. • 3. Plates were incubated at 37° C., 5% CO2 for 24 h
Test compounds were prepared in concentration response in DMSO with a half-log dilution factor in DMSO in Echo 384 LDV plates starting at 10 mM. • 2. 30 nL of above test compounds were dispensed with Echo 655 to cells for a top concentration of 10 μM • 3. […] Plates were incubated at 37° C., 5% CO2 for 24 h
10 μL pHrodo Red-LDL in assay medium was dispensed to cells with Multidrop Combi for 6 μg/mL • 2. Plates were incubated at 37° C., 5% CO2 and imaged with the Incucyte S3 after 4 h and 24 h
Image data was processed using Incucyte 2021, a software to identify cells and red fluorescent intensity. Screener was used to further process data. Data was normalized as % effect of the signal between median values of the on-plate controls of DMSO and 100 nM Evolocumab according to the formula % effect=−100*(x−DMSO)/(Evolocumab−DMSO) where x equals the measured signal. Concentration response data of the normalized values were fitted using a four-parameter logistic fit.

Structures are written as SMILES. A value given as a limit tells only on which side of the number the result lay.

Chain of PCSK9 (Homo sapiens, UniProt Q8NBP7) (Q8NBP7 31-692): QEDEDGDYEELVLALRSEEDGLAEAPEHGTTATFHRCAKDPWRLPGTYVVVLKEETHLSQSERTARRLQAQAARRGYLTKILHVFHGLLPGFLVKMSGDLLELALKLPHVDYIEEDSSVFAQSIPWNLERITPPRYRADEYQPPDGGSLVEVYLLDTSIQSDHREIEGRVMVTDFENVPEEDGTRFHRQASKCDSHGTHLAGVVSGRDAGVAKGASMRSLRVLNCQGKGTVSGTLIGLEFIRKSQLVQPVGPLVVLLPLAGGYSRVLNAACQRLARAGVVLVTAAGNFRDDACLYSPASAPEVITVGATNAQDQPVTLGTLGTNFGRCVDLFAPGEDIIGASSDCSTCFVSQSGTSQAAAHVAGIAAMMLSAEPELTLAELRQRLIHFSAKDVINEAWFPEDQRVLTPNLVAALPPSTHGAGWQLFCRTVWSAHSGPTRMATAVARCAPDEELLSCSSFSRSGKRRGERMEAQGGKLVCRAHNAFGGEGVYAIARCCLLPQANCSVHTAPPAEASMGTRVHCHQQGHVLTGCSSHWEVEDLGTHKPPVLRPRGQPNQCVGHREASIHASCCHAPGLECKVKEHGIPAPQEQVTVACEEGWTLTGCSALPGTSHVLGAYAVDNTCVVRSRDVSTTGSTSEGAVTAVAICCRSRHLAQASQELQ

Turning to `O=c1ccccn1-c1ccc(N[C@H]2CC[C@H](Nc3nc4ccc(CO)cc4o3)C2)nc1` [Example 4, 6′-(((1S,3S)-3-((6-(Hydroxymethyl)benzo[d]oxazol-2-yl)amino)cyclopentyl)amino)-2H-[1,3′-bipyridin]-2-one], the dissociation constant Kd on PCSK9 [1] is 49 nM. The half-inhibitory concentration (IC50) in test [2] was more than 40000 nM; at PCSK9 [3], 32.2 nM; in test [4], more than 10 µM.

As for `Cc1cnc2[nH]c(N[C@H]3CC[C@H](Nc4ccc(-n5ccccc5=O)cn4)C3)nc2c1` [Example 49, 6′-(((1S,3S)-3-((6-Methyl-3H-imidazo[4,5-b]pyridin-2-yl)amino)cyclopentyl)amino)-2H-[1,3′-bipyridin]-2-one], the IC50 against PCSK9 [5] was 43 nM; in test [2], more than 40000 nM; against PCSK9 [3] it was 2.8 nM; in test [4] it was 5.59 µM.

As for `O=c1c(OC(F)(F)F)cccn1-c1ccc(N[C@H]2CC[C@H](Nc3nc4cccnc4[nH]3)C2)nc1` [Example 63, 6′-(((1S,3S)-3-((3H-Imidazo[4,5-b]pyridin-2-yl)amino)cyclopentyl)amino)-3-(trifluoromethoxy)-2H-[1,3′-bipyridin]-2-one], the IC50 on PCSK9 [5] was 51 nM; in test [2], more than 40000 nM; on PCSK9 [3], 2.1 nM; in test [4], more than 10 µM.

With `O=c1[nH]c2ccccc2n1-c1ccc(N[C@H]2CC[C@H](Nc3nc4cccnc4[nH]3)C2)nc1` [Example 35, 1-(6-(((1S,3S)-3-((3H-Imidazo[4,5-b]pyridin-2-yl)amino)cyclopentyl)amino)pyridin-3-yl)-1,3-dihydro-2H-benzo[d]imidazol-2-one], the IC50 against PCSK9 [5] stood at 108 nM; in test [2] it was 27400 nM; at PCSK9 [3], 0.7 nM; in test [4], 7.61 µM.

As for `O=c1ccccn1-c1ccc(N[C@H]2CC[C@H](Nc3nc4ncccc4s3)C2)nc1` [Example 20, 6′-(((1S,3S)-3-(Thiazolo[4,5-b]pyridin-2-ylamino)cyclopentyl)amino)-2H-[1,3′-bipyridin]-2-one], the Kd on PCSK9 [1] is 672 nM. Moreover, the IC50 in test [2] was more than 40100 nM; on PCSK9 [3] it was 603 nM; in test [4], more than 10 µM.

On to `O=c1cccnn1-c1ccc(N[C@H]2CC[C@H](Nc3nc4cccnc4[nH]3)C2)nc1` [Example 28, 2-(6-(((1S,3S)-3-((3H-Imidazo[4,5-b]pyridin-2-yl)amino)cyclopentyl)amino)pyridin-3-yl)pyridazin-3(2H)-one], for which the IC50 against PCSK9 [5] is 173 nM; in test [2], more than 40000 nM; at PCSK9 [3] it was 5.7 nM; in test [4], more than 10 µM.

`CCc1cnc2[nH]c(N[C@H]3CC[C@H](Nc4ccc(-n5ccccc5=O)cn4)C3)nc2c1` [Example 56, 6′-(((1S,3S)-3-((6-Ethyl-3H-imidazo[4,5-b]pyridin-2-yl)amino)cyclopentyl)amino)-2H-[1,3′-bipyridin]-2-one]: the IC50 against PCSK9 [5] was 395 nM; in test [2], more than 40000 nM; against PCSK9 [3], 3.1 nM; in test [4] it was 3.13 µM.

Regarding `COc1cccc(F)c1-c1ccc(N[C@H]2CC[C@H](Nc3nc4cccnc4[nH]3)C2)nc1` [Example 67, (1S,3S)—N^1-(5-(2-Fluoro-6-methoxyphenyl)pyridin-2-yl)-N^3-(3H-imidazo[4,5-b]pyridin-2-yl)cyclopentane-1,3-diamine], on PCSK9 [1], the Kd came to 57 nM. Besides, the IC50 was 3980 nM in test [2], 18.1 nM at PCSK9 [3] and more than 10 µM in test [4].

Regarding `O=c1ccccn1-c1ccc(N[C@H]2CC[C@H](Nc3nc4cc(C(F)(F)F)cnc4[nH]3)C2)nc1` [Example 62, 6′-(((1S,3S)-3-((6-(Trifluoromethyl)-3H-imidazo[4,5-b]pyridin-2-yl)amino)cyclopentyl)amino)-2H-[1,3′-bipyridin]-2-one], the IC50 against PCSK9 [5] is 89 nM; in test [2], more than 40000 nM; at PCSK9 [3] it was 2.2 nM; in test [4], 0.153 µM.

Take `O=c1ccccn1-c1ccc(N[C@H]2CC[C@H](Nc3nc4ccccc4[nH]3)C2)nc1` [Example 10, 6′-(((1S,3S)-3-((1H-Benzo[d]imidazol-2-yl)amino)cyclopentyl)amino)-2H-[1,3′-bipyridin]-2-one]: the Kd on PCSK9 [1] came out at 1550 nM. In addition, the figures for the IC50 (in test [2]; on PCSK9 [3]; in test [4]) were 4000 nM, 2470 nM and more than 10 µM, respectively.

Turning to `O=c1ccccn1-c1ccc(N[C@H]2CC[C@H](Nc3nc4c(Cl)c(Cl)cnc4[nH]3)C2)nc1` [Example 50, 6′-(((1S,3S)-3-((6,7-Dichloro-3H-imidazo[4,5-b]pyridin-2-yl)amino)cyclopentyl)amino)-2H-[1,3′-bipyridin]-2-one], the IC50 against PCSK9 [5] amounted to 190 nM; in test [2], 32000 nM; against PCSK9 [3], 10.5 nM; in test [4] it was 0.024 µM.

With `Cn1cccc(-c2cnc(N[C@H]3CC[C@H](Nc4nc5cccnc5[nH]4)C3)nc2)c1=O` [Example 39, 3-(2-(((1S,3S)-3-((3H-Imidazo[4,5-b]pyridin-2-yl)amino)cyclopentyl)amino)pyrimidin-5-yl)-1-methylpyridin-2(1H)-one], the IC50 at PCSK9 [5] was 93 nM; in test [2], more than 40000 nM; on PCSK9 [3], 6.1 nM; in test [4], more than 10 µM.

Turning to `O=c1ccccn1-c1ccc(N[C@H]2CC[C@H](Nc3nc4cccnc4o3)C2)nc1` [Example 11, 6′-(((1S,3S)-3-(Oxazolo[5,4-b]pyridin-2-ylamino)cyclopentyl)amino)-2H-[1,3′-bipyridin]-2-one], on PCSK9 [1], the Kd was 24 nM. Further, the IC50 in test [2] is more than 40000 nM; on PCSK9 [3], 28 nM; in test [4] it was more than 10 µM.

`COc1ccc(=O)n(-c2ccc(N[C@H]3CC[C@H](Nc4nc5cccnc5[nH]4)C3)nc2)c1` [Example 72, 6′-(((1S,3S)-3-((3H-Imidazo[4,5-b]pyridin-2-yl)amino)cyclopentyl)amino)-5-methoxy-2H-[1,3′-bipyridin]-2-one]: the half-maximal inhibitory concentration (IC50) against PCSK9 [5] was 163 nM; in test [2], more than 40000 nM; on PCSK9 [3], 5 nM; in test [4], 0.01 µM.

For the compound `O=c1ccccn1-c1ccc(N[C@H]2CC[C@H](Nc3nc4nccnc4[nH]3)C2)nc1` [Example 80, 6′-(((1S,3S)-3-((1H-Imidazo[4,5-b]pyrazin-2-yl)amino)cyclopentyl)amino)-2H-[1,3′-bipyridin]-2-one], the half-maximal inhibitory concentration (IC50) was 158 nM at PCSK9 [5], more than 40000 nM in test [2], 5.1 nM on PCSK9 [3] and 0.305 µM in test [4].

Turning to `O=c1c(C(F)(F)F)cccn1-c1ccc(N[C@H]2CC[C@H](Nc3nc4cccnc4[nH]3)C2)nc1` [Example 64, 6′-(((1S,3S)-3-((3H-Imidazo[4,5-b]pyridin-2-yl)amino)cyclopentyl)amino)-3-(trifluoromethyl)-2H-[1,3′-bipyridin]-2-one], the IC50 on PCSK9 [5] was 99 nM; in test [2] it was more than 40000 nM; at PCSK9 [3], 1.7 nM; in test [4], more than 10 µM.

On to `O=c1c(Cl)cccn1-c1ccc(N[C@H]2CC[C@H](Nc3nc4cccnc4o3)C2)nc1` [Example 16, 3-Chloro-6′-(((1S,3S)-3-(oxazolo[5,4-b]pyridin-2-ylamino)cyclopentyl)amino)-2H-[1,3′-bipyridin]-2-one], for which the IC50 on PCSK9 [5] is 81 nM; in test [2] it was 28400 nM; at PCSK9 [3], 1.6 nM; in test [4], more than 10 µM.

The Kd is the constant that tells how readily two partners part at equilibrium. In general, IC50 refers to the concentration that gives 50% inhibition.
